Like-named read-outs stand apart in the source and are kept apart here.
What was measured:
[1] = target: T1, Human Calpain 1/NS1 (Homo sapiens, UniProt P07384); experiment: Calpain inhibition continuous fluorescence (FRET) assay, Human Calpain 1/NS1; type: biochemical; details: read-out: Human Calpain 1/NS1 IC50
T1 sequence (P07384 1-714): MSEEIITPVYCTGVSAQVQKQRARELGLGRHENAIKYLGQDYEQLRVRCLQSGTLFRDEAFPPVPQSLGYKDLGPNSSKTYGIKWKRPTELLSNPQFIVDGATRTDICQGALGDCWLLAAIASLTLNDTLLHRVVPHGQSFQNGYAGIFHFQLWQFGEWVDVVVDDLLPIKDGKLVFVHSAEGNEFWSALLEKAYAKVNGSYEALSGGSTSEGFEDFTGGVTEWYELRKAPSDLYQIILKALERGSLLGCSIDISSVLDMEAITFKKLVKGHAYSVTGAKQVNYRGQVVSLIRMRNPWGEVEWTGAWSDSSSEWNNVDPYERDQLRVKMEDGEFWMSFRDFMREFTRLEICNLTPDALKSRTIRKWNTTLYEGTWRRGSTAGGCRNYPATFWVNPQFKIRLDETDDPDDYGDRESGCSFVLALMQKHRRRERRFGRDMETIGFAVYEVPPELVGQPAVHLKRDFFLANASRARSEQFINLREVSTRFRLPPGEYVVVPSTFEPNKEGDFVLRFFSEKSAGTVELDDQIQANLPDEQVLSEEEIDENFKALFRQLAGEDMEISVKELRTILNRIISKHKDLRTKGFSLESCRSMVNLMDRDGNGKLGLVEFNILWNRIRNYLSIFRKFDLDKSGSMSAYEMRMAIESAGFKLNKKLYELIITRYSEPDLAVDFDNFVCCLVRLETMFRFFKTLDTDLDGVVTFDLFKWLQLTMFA
T1 sequence (P04632 1-268 partner): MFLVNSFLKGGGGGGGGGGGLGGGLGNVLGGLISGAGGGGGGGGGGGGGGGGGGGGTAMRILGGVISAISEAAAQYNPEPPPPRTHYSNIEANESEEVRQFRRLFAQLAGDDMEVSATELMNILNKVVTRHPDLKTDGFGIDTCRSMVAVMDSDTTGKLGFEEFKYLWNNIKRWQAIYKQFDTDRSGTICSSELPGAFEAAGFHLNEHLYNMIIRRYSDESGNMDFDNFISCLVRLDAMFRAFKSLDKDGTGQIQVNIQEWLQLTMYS
How it was run: (§1)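 Fluorescence increase from the cleaved 5-FAM/QXL 520 substrate, read at 490/520 nm, gave activity. Calcium was supplied with the substrate to activate the enzyme in situ after a 25C enzyme-inhibitor preincubation, and IC50s were fit from initial slopes.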

[2] = target: T2, Human Calpain 2/NS1 (Homo sapiens, UniProt P17655); experiment: Calpain inhibition continuous fluorescence (FRET) assay, Human Calpain 2/NS1; type: biochemical; details: read-out: Human Calpain 2/NS1 IC50
T2 sequence (P17655 1-700): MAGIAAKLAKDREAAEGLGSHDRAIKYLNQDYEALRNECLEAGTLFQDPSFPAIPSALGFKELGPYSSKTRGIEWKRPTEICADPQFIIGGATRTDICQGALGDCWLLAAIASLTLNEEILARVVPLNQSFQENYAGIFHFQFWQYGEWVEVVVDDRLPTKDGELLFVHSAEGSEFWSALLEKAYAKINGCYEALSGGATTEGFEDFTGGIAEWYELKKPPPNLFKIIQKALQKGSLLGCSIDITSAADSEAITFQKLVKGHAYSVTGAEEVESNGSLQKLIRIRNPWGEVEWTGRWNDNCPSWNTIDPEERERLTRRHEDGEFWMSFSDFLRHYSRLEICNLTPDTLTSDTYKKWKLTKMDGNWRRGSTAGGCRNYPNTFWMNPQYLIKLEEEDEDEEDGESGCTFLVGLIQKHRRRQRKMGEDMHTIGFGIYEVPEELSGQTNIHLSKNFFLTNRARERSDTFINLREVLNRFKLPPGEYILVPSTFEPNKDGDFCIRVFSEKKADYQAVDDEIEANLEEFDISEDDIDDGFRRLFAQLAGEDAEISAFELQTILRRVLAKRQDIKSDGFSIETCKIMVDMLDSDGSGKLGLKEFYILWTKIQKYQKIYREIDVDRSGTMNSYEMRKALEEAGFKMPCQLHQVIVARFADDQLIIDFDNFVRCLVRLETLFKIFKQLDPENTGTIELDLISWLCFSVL
T2 sequence (P04632 1-268 partner): T1 sequence (P04632 1-268 partner)
How it was run: as §1

[3] = target: T3, Human Calpain 9/NS1 (Homo sapiens, UniProt O14815); experiment: Calpain inhibition continuous fluorescence (FRET) assay, Human Calpain 9/NS1; type: biochemical; details: read-out: Human Calpain 9/NS1 IC50
T3 sequence (O14815 1-690): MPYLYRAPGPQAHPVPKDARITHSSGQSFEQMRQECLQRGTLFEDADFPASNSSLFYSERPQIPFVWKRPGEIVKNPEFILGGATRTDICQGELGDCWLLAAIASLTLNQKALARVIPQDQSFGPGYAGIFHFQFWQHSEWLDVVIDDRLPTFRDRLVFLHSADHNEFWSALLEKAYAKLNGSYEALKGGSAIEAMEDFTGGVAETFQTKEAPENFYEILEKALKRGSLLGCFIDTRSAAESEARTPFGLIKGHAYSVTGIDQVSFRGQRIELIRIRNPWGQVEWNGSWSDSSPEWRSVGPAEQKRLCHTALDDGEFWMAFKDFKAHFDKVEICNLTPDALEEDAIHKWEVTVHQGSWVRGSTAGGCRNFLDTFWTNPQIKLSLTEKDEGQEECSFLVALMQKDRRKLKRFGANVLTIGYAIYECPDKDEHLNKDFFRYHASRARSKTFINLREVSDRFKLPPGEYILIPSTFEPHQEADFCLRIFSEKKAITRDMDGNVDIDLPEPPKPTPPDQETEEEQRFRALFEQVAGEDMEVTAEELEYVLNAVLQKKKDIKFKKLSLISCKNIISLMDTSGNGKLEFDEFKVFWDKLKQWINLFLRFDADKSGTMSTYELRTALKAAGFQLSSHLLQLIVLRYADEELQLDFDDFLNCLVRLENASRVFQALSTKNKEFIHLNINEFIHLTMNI
T3 sequence (P04632 1-268 partner): T1 sequence (P04632 1-268 partner)
How it was run: as §1

[4] = tested on: Calpain activity in SH-SY5Y cells (SBDP-150); experiment: SH-SY5Y Spectrin western blot assay (SBDP-150 breakdown product, A23187-induced); type: cell-based; details: read-out: SH-SY5Y Spectrin IC50
[5] = tested on: Calpain activity in SH-SY5Y cells; experiment: SH-SY5Y + AMC fluorescence assay (Suc-LLVY-AMC substrate); type: cell-based
[6] = Homo sapiens, SH-SY5Y cells, A23187-induced SBDP-150, western blot
[7] = Homo sapiens, Column D, SH-SY5Y cells, A23187-induced SBDP-150
[8] = Column E, read-out: SH-SY5Y + AMC IC50

Compound	IC50 [1]	IC50 [2]	IC50 [3]	IC50 [4, 6]	IC50 ([5]; read-out: SH-SY5Y + AMC IC50)	IC50 ([1]; Column A)	IC50 ([2]; Column B)	IC50 ([3]; Column C)	IC50 ([4]; Homo sapiens, SH-SY5Y)	IC50 ([5]; read-out: SH-SY5Y + AMC IC50, Column E)	IC50 [4, 7]	IC50 [5, 8]	IC50 ([4]; Column D, SH-SY5Y cells, A23187-induced SBDP-150)
Cn1cc(C(=O)NC(Cc2ccccc2)C(=O)C(N)=O)c(-c2cccc(C(F)F)c2)n1 (stereo not shown) [Compound 508, N-(4-amino-3,4-dioxo-1-phenylbutan-2-yl)-3-(3-(difluoromethyl)phenyl)-1-methyl-1H-pyrazole-4-carboxamide]	< 3 µM	< 3 µM	< 3 µM	< 10 µM	< 10 µM								
Cn1cc(C(=O)NC(Cc2ccccc2)C(=O)C(N)=O)c(-c2cccc(F)c2F)n1 (stereo not shown) [Compound 480, N-(4-amino-3,4-dioxo-1-phenylbutan-2-yl)-3-(2,3-difluorophenyl)-1-methyl-1H-pyrazole-4-carboxamide]	< 3 µM	< 3 µM	< 3 µM	10 to 25 µM	10 to 25 µM								
CCOC(=O)NCc1cccc(-n2nc(C)cc2C(=O)N[C@@H](Cc2ccccc2)C(=O)C(N)=O)c1 [Compound 147, Ethyl (S)-(3-(5-((4-amino-3,4-dioxo-1-phenylbutan-2-yl)carbamoyl)-3-methyl-1H-pyrazol-1-yl)benzyl)carbamate]						< 3 µM	< 3 µM	< 3 µM	10 to 25 µM	10 to 25 µM			
Cc1cc(C(=O)N[C@@H](Cc2ccccc2)C(=O)C(N)=O)n(-c2ccc(-c3ccccc3C)cc2)n1 [Compound 202, (S)—N-(4-amino-3,4-dioxo-1-phenylbutan-2-yl)-3-methyl-1-(2′-methyl-[1,1′-biphenyl]-4-yl)-1H-pyrazole-5-carboxamide]						< 3 µM	< 3 µM	< 3 µM			10 to 25 µM	> 25 µM	
Cn1cc(C(=O)N[C@@H](Cc2ccccc2)C(=O)CF)c(-c2ccccc2)n1 [Compound 476, (S)—N-(4-fluoro-3-oxo-1-phenylbutan-2-yl)-1-methyl-3-phenyl-1H-pyrazole-4-carboxamide]	< 3 µM	< 3 µM	< 3 µM	10 to 25 µM	> 25 µM								
Cc1cc(C(=O)NC(C=O)Cc2ccccc2)n(-c2cccc(COCc3ccccc3)c2)n1 (stereo not shown) [Compound 400, 1-(3-((benzyloxy)methyl)phenyl)-3-methyl-N-(1-oxo-3-phenylpropan-2-yl)-1H-pyrazole-5-carboxamide]	< 3 µM	< 3 µM	< 3 µM	> 25 µM	> 25 µM								
Cn1cc(C(=O)N[C@H](C(=O)C(N)=O)C2Cc3ccccc3C2)c(-c2ccccc2F)n1 [Compound 553, (S)—N-(3-amino-1-(2,3-dihydro-1H-inden-2-yl)-2,3-dioxopropyl)-3-(2-fluorophenyl)-1-methyl-1H-pyrazole-4-c arboxamide]	< 3 µM	< 3 µM	< 3 µM	> 25 µM	< 10 µM								
NC(=O)C(=O)C(Cc1ccc(F)cc1)NC(=O)c1nsnc1-c1ccccc1 (stereo not shown) [Compound 464, N-(4-amino-1-(4-fluorophenyl)-3,4-dioxobutan-2-yl)-4-phenyl-1,2,5-thiadiazole-3-carboxamide]	< 3 µM	< 3 µM	< 3 µM	< 10 µM	< 10 µM								
Cn1cc(C(=O)N[C@@H](Cc2ccccc2)C(=O)C(N)=O)c(-c2cnccn2)n1 [Compound 313, (S)—N-(4-amino-3,4-dioxo-1-phenylbutan-2-yl)-1-methyl-3-(pyrazin-2-yl)-1H-pyrazole-4-carboxamide]	< 3 µM	< 3 µM	< 3 µM	> 25 µM	> 25 µM								
Methyl (S)-(4-(5-((4-amino-3,4-dioxo-1-phenylbutan-2-yl)carbamoyl)-3-methyl-1H-pyrazol-1-yl)benzyl)carbamate [Compound 161]						< 3 µM	< 3 µM	< 3 µM				> 25 µM	< 10 µM
Cc1cc(C(=O)N[C@@H](Cc2ccccc2)C(=O)C(N)=O)n(-c2ccc(-c3cccc(F)c3)cc2)n1 [Compound 216, (S)—N-(4-amino-3,4-dioxo-1-phenylbutan-2-yl)-1-(3′-fluoro-[1,1′-biphenyl]-4-yl)-3-methyl-1H-pyrazole-5-carboxamide]						< 3 µM	< 3 µM	< 3 µM			< 10 µM	> 25 µM	
Cc1cccc(-c2ccc(-n3nc(C)cc3C(=O)N[C@@H](Cc3ccccc3)C(=O)C(N)=O)cc2)c1 [Compound 218, (S)—N-(4-amino-3,4-dioxo-1-phenylbutan-2-yl)-3-methyl-1-(3′-methyl-[1,1′-biphenyl]-4-yl)-1H-pyrazole-5-carboxamide]						< 3 µM	< 3 µM	< 3 µM			10 to 25 µM	> 25 µM	
Cc1nc(-c2ccccc2)c(C(=O)N[C@@H](Cc2ccccc2)C(=O)C(N)=O)o1 [Compound 26, (S)—N-(4-amino-3,4-dioxo-1-phenylbutan-2-yl)-2-methyl-4-phenyloxazole-5-carboxamide]						< 3 µM	< 3 µM	< 3 µM			< 10 µM	< 10 µM	
Cn1cc(C(=O)NC(Cc2ccccc2)C(=O)C(N)=O)c(-n2ncc3ccccc32)n1 (stereo not shown) [Compound 530, N-(4-amino-3,4-dioxo-1-phenylbutan-2-yl)-3-(1H-indazol-1-yl)-1-methyl-1H-pyrazole-4-carboxamide]	< 3 µM	< 3 µM	< 3 µM	> 25 µM	> 25 µM								
